According to US20210261964A1, “LIPID PARTICLE CONTAINING A-TYPE CpG OLIGODEOXYNUCLEOTIDE” (THE RESEARCH FOUNDATION FOR MICROBIAL DISEASES OF OSAKA …, priority 2018, published 2021):

How the values were obtained:
[1] = system: Bone marrow cells from WT, TLR7KO, and TLR9KO mice; assay: TLR9 dependency: IL-6 production in bone marrow cells, ELISA; type: cell-based, mouse; conditions: R848 1 ug/mL, D35 10 uM=63.4 ug/mL, nanoparticles 1 μg/mL in terms of D35, 24 hours; for IL-6 production in TLR7KO: TLR7KO bone marrow cells; for IL-6 production in TLR9KO: TLR9KO bone marrow cells
Description: (§1) The content of each lipid per 100 mass % of lipids constituting the lipid particles is as follows: DOTAP: 50 mass %, DPPC: 19.5 mass %, cholesterol: 30 mass %, and DSPE-PEG (2 k (PEG chain length))-OMe: 0.5 mass % or 3.0 mass %. The ratio (N/P) of the number of nitrogen atoms (N) in the lipids constituting the lipid particles to the number of phosphorus atoms (D35) (P) in the nucleic acid was set to 3. A D35-containing aqueous solution and a lipid-containing ethanol solution were mixed using the NanoAssemblr (produced by Precision NanoSystems) to obtain lipid nanoparticles, which were then dialyzed against a 5% glucose aqueous solution. In this Test Example and the following Test Examples, the D35-containing lipid nanoparticles obtained here were used.
(§2) Bone marrow cells were prepared from each of WT, TLR7KO, and TLR9KO mice, and stimulated with R848 (TLR7/8 agonist; medium final concentration: 1 ug/mL), D35 (TLR9 agonist; medium final concentration: 10 uM=63.4 ug/mL), and D35-containing lipid nanoparticles (medium final concentration in terms of D35: 1 μg/mL), followed by culturing for 24 hours. Then, the amounts of IFN-I and IL-6 in the culture supernatant were quantified by a biological activity measurement method using murine type I IFNs sensor cells (B16-Blue IFN-α/a cells) and by the usual ELISA method, respectively.

[2] = system: MC38 mouse colorectal cancer-derived tumor; assay: MC38 mouse colorectal cancer-derived tumor model, tumor size; type: in vivo; conditions: Test Example 6, FIG. 6: intratumoral, days 9, 11, 13, 15, 17; 4.5 ug/shot D35; effect on days 17 and 21
Protocol: On days 9, 11, 13, 15, and 17 after subcutaneous transplantation of MC38 (1×10^6 cells), a pharmaceutical agent (D35 or D35-containing lipid nanoparticles (DSPE-PEG-OMe content: 0.5 mass %)) was intratumorally administered 5 times in total. Then, the tumor size was measured. The amount of D35 nucleic acid administered at one time was adjusted to 4.5 ug/shot.
On days 9, 11, 13, 15, and 17 after subcutaneous transplantation of MC38 (1×10^6 cells), D35-containing lipid nanoparticles (DSPE-PEG-OMe content: 0.5 mass %) were intratumorally administered 5 times in total. Then, the tumor size was measured. Further, in order to deplete CD8T cells, anti-CD8a antibody (100 ug/shot) or control antibody (100 ug/shot) was intraperitoneally administered on days 6 and 13 after subcutaneous transplantation. The amount of D35 nucleic acid administered at one time was adjusted to 4.5 ug/shot.
On days 9, 11, 13, 15, and 17 after subcutaneous transplantation of MC38 (1×10^6 cells), a pharmaceutical agent (D35 or D35-containing lipid nanoparticles (DSPE-PEG-OMe content: 0.5 mass %)) was administered intravenously 5 times in total. Then, the tumor size was measured. […]
On days 9, 11, 13, 15, and 17 after subcutaneous transplantation of MC38 (1×10^6 cells), D35-containing lipid nanoparticles (DSPE-PEG-OMe content: 0.5 mass %) were administered intravenously 5 times in total. Then, the tumor size was measured. […]

[3] = system: Bone marrow cells from WT, TLR7KO, and TLR9KO mice; assay: TLR9 dependency: IFN-I production in bone marrow cells, B16-Blue sensor cell bioassay; type: cell-based, mouse; conditions: R848 1 ug/mL; 24 hours
Description: as §1, §2

Compound | IL-6 production in TLR7KO [1] | IL-6 production in TLR9KO [1] | tumor size [2] | IFN-I production [3]
G_G_TGCATCGATGCAGGGG_G_G (DNA GGTGCATCGATGCAGGGGGG; DNA, linkages s2 o15 s2 (s phosphorothioate, o phosphodiester), methylation of C not given here; formulated in lipid nanoparticles) [D35, A-type CpG oligodeoxynucleotide, TLR9 agonist, not complexed with lipids] | did not disappear | disappeared almost completely | No effect was observed | –
CCOCc1nc2c(N)nc3ccccc3c2n1CC(C)(C)O [R848] | disappeared | did not disappear | – | very weak
